Test results published in ChEMBL document CHEMBL5113376, “Antimalarial application of quinones: A recent update” (Eur J Med Chem, 2021).

Tested on: Plasmodium falciparum
Test: Antiplasmodial activity against Plasmodium falciparum W2 assessed as inhibition of parasite growth after 48 hrs by pLDH assay
Format: functional, organism-based
Details: W2, 48 h

## O=C1c2ccccc2C(=O)c2oc(Cc3ccccc3)cc21
  IC50: 1500 nM
